Assay results published in ChEMBL document CHEMBL1201862, “PubChem BioAssay data set” (2004).
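Where inhibition never reached the appropriate level, the endpoint shown equals the highest concentration tested. Otherwise, values were interpolated linearly from a five-concentration, 48-hour dose response in 96-well plates. GI50 = concentration required for 50% inhibition of growth.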 Active and inactive are the calls of the source. Cut-off read from the data, not from the text of the source: active = GI50 up to about 1.1 µM and inactive = higher.

Assays:
Test in all cases: NCI tumour cell line growth inhibition, 48 h
NCI-H23 = test system: NCI-H23
HT-29 = test system: HT-29
LOX IMVI = test system: LOX IMVI
CCRF-CEM = test system: CCRF-CEM
SF-539 = test system: SF-539
SK-OV-3 = test system: SK-OV-3
HCT-116 = test system: HCT-116
UACC-62 = test system: UACC-62
Malme-3M = test system: Malme-3M
MDA-MB-231 = test system: MDA-MB-231
786-0 = test system: 786-0
NCI-H226 = test system: NCI-H226
PC-3 = test system: PC-3
MDA-MB-435 = test system: MDA-MB-435
SW-620 = test system: SW-620
HL-60 = test system: HL-60
HCC 2998 = test system: HCC 2998
SNB-19 = test system: SNB-19
COLO 205 = test system: COLO 205
HOP-62 = test system: HOP-62
UACC-257 = test system: UACC-257
A549 = test system: A549
U-251 = test system: U-251
KM12 = test system: KM12
DU-145 = test system: DU-145
SN12C = test system: SN12C
OVCAR-5 = test system: OVCAR-5
NCI/ADR-RES = test system: NCI/ADR-RES
ACHN = test system: ACHN
Hs-578T = test system: Hs-578T
OVCAR-4 = test system: OVCAR-4
M14 = test system: M14
SF-268 = test system: SF-268
MOLT-4 = test system: MOLT-4
NCI-H460 = test system: NCI-H460
RXF 393 = test system: RXF 393
RPMI-8226 = test system: RPMI-8226
HCT-15 = test system: HCT-15
MCF7 = test system: MCF7
K562 = test system: K562
OVCAR-8 = test system: OVCAR-8
SF-295 = test system: SF-295
HOP-92 = test system: HOP-92
SR = test system: SR
OVCAR-3 = test system: OVCAR-3
IGROV-1 = test system: IGROV-1
T47D = test system: T47D
EKVX = test system: EKVX
SK-MEL-5 = test system: SK-MEL-5
UO-31 = test system: UO-31
SK-MEL-2 = test system: SK-MEL-2
A498 = test system: A498
SK-MEL-28 = test system: SK-MEL-28
TK-10 = test system: TK-10
SNB-75 = test system: SNB-75
CAKI-1 = test system: CAKI-1
BT-549 = test system: BT-549
NCI-H522 = test system: NCI-H522
MDA-N = test system: MDA-N

CC(C)(Oc1ccc(Cl)cc1)C(=O)N(C(=O)N1CCC(c2ccccc2)CC1)c1ccccc1
GI50 (NCI-H23): 8.79 µM (inactive)
GI50 (HT-29): 22.5 µM (inactive)
GI50 (LOX IMVI): 22.9 µM (inactive)
GI50 (CCRF-CEM): 3.03 µM (inactive)
GI50 (SF-539): > 100 µM (inactive)
GI50 (SK-OV-3): 99.8 µM (inactive)
GI50 (HCT-116): 4.78 µM (inactive)
GI50 (UACC-62): > 57.5 µM (inactive)
GI50 (Malme-3M): 25.4 µM (inactive)
GI50 (MDA-MB-231): > 100 µM (inactive)
GI50 (786-0): > 100 µM (inactive)
GI50 (NCI-H226): > 61 µM (inactive)
GI50 (PC-3): 5.51 µM (inactive)
GI50 (MDA-MB-435): > 100 µM (inactive)
GI50 (SW-620): 22.4 µM (inactive)
GI50 (HL-60): 1.6 µM (inactive)
GI50 (HCC 2998): 41.4 µM (inactive)
GI50 (SNB-19): > 100 µM (inactive)
GI50 (COLO 205): 10 µM (inactive)
GI50 (HOP-62): > 100 µM (inactive)
GI50 (UACC-257): 11 µM (inactive)
GI50 (A549): 34.5 µM (inactive)
GI50 (U-251): > 25.2 µM (inactive)
GI50 (KM12): 15.5 µM (inactive)
GI50 (DU-145): > 100 µM (inactive)
GI50 (SN12C): 27.4 µM (inactive)
GI50 (OVCAR-5): > 100 µM (inactive)
GI50 (NCI/ADR-RES): > 29.6 µM (inactive)
GI50 (ACHN): 40.6 µM (inactive)
GI50 (Hs-578T): > 73.8 µM (inactive)
GI50 (OVCAR-4): > 100 µM (inactive)
GI50 (M14): 65 µM (inactive)
GI50 (SF-268): > 100 µM (inactive)
GI50 (MOLT-4): 7.05 µM (inactive)
GI50 (NCI-H460): 16 µM (inactive)
GI50 (RXF 393): 13.6 µM (inactive)
GI50 (RPMI-8226): 2.99 µM (inactive)
GI50 (HCT-15): 9.89 µM
GI50 (MCF7): 23.7 µM (inactive)
GI50 (K562): 4.2 µM (inactive)
GI50 (OVCAR-8): 8.47 µM (inactive)
GI50 (SF-295): 23.8 µM (inactive)
GI50 (HOP-92): > 100 µM (inactive)
GI50 (SR): > 100 µM (inactive)
GI50 (OVCAR-3): > 73.5 µM (inactive)
GI50 (IGROV-1): > 53.2 µM (inactive)
GI50 (T47D): 7 µM (inactive)
GI50 (EKVX): 11.1 µM (inactive)
GI50 (SK-MEL-5): 4.94 µM (inactive)
GI50 (UO-31): 22.4 µM (inactive)
GI50 (SK-MEL-2): > 59.7 µM (inactive)
GI50 (A498): > 82.8 µM (inactive)
GI50 (SK-MEL-28): > 100 µM (inactive)
GI50 (TK-10): > 30.1 µM (inactive)
GI50 (SNB-75): > 26.1 µM (inactive)
GI50 (CAKI-1): 46 µM (inactive)
GI50 (BT-549): 23.4 µM (inactive)

CCCCC1Nc2ccccc2-c2ccnc(Cl)c21 (stereo not drawn)
GI50 (NCI-H23): 16.5 µM (inactive)
GI50 (HT-29): 10.8 µM (inactive)
GI50 (LOX IMVI): 16.6 µM (inactive)
GI50 (CCRF-CEM): 19.1 µM (inactive)
GI50 (SF-539): 19.2 µM (inactive)
GI50 (SK-OV-3): 20.3 µM (inactive)
GI50 (HCT-116): 15.7 µM (inactive)
GI50 (UACC-62): 13.7 µM (inactive)
GI50 (Malme-3M): 20.8 µM (inactive)
GI50 (MDA-MB-231): 17.1 µM (inactive)
GI50 (786-0): 19.5 µM (inactive)
GI50 (NCI-H226): 17.6 µM (inactive)
GI50 (PC-3): 25.8 µM (inactive)
GI50 (MDA-MB-435): 16.1 µM (inactive)
GI50 (SW-620): 21.2 µM (inactive)
GI50 (HL-60): 17.8 µM (inactive)
GI50 (HCC 2998): 38.7 µM (inactive)
GI50 (SNB-19): 24.1 µM (inactive)
GI50 (COLO 205): 15.7 µM (inactive)
GI50 (HOP-62): 19.3 µM (inactive)
GI50 (UACC-257): 20 µM (inactive)
GI50 (A549): 28.1 µM (inactive)
GI50 (U-251): 21.4 µM (inactive)
GI50 (KM12): 20.7 µM (inactive)
GI50 (DU-145): 20.5 µM (inactive)
GI50 (SN12C): 20.8 µM (inactive)
GI50 (NCI/ADR-RES): 27.7 µM (inactive)
GI50 (ACHN): 20.8 µM (inactive)
GI50 (Hs-578T): 15 µM (inactive)
GI50 (NCI-H522): 11.7 µM (inactive)
GI50 (OVCAR-4): 20.1 µM (inactive)
GI50 (M14): 19.1 µM (inactive)
GI50 (SF-268): 23.1 µM (inactive)
GI50 (MOLT-4): 17.8 µM (inactive)
GI50 (NCI-H460): 32.1 µM (inactive)
GI50 (RXF 393): 18.5 µM (inactive)
GI50 (RPMI-8226): 12.2 µM (inactive)
GI50 (HCT-15): 16.9 µM
GI50 (MCF7): 35 µM (inactive)
GI50 (MDA-N): 15.6 µM (inactive)
GI50 (K562): 20.9 µM (inactive)
GI50 (SF-295): 21.5 µM (inactive)
GI50 (HOP-92): 14.2 µM (inactive)
GI50 (SR): 18.7 µM (inactive)
GI50 (OVCAR-3): 11.1 µM (inactive)
GI50 (IGROV-1): 19 µM (inactive)
GI50 (EKVX): 24.2 µM (inactive)
GI50 (SK-MEL-5): 15.2 µM (inactive)
GI50 (UO-31): 20 µM (inactive)
GI50 (SK-MEL-2): 16.8 µM (inactive)
GI50 (A498): 16.8 µM (inactive)
GI50 (SK-MEL-28): 17.8 µM (inactive)
GI50 (TK-10): 33 µM (inactive)
GI50 (SNB-75): 13.5 µM (inactive)
GI50 (CAKI-1): 3.61 µM (inactive)
GI50 (BT-549): 18 µM (inactive)
